The source of these data is patent US7745641B2, “Nitrogen-containing heterocyclic compound” (Kyowa Hakko Kirin Co., Ltd., priority 2005, dated 2010).

Where only a bound is given, the exact number is not on record here.

The melting point is the temperature, or range, at which the solid turns liquid. Usually inhibition stands for how much of the control response was suppressed.

For data set [1], the system named is human-tumor-transplant rat models. Particulars: cited from earlier work.
For data set [2], the system named is human-tumor-transplant mouse models. Particulars: cited from earlier work.
Data set [3] concerns HCT116 cells. Put plainly: Evaluation of Aurora inhibitory activity by analysis of nuclear morphology (enlarged lobed nuclei). It is filed as cell-based, human. Particulars: concentration in the range of 0.1 to 1 μmol/L, 17 hours contact; optimal concentration different in each compound. As for the experimental part:
281 (2003)]. Consequently, enlarged lobed nuclei-inducibility of test compounds for HCT116 cells was evaluated. McCoy's 5A culture medium (GIBCO, Catalogue No. 16600-082) containing 10% bovine fetus serum (GIBCO, Catalogue No. 10099-141) was used for the cultivation of the cells. HCT116 cells were inoculated and, 24 hours later, each test compound was added thereto.

The test system of data set [4] is Aurora. Put plainly: Aurora inhibitory activity using Western blotting method (phosphorylation of histone H3 Ser10). In kind it is cell-based, human. To be noted: 10 μmol/L, 30 minutes, HCT116 cells accumulated in M phase with Nocodazole. The source says:
It is known that Aurora phosphorylates Ser10 of histone H3 in the G2/M phase during the cell cycle [Molecular and Cellular Biology, Vol. 22, p. 874 (2002)]. Consequently, the inhibition of phosphorylation of histone H3 Ser10 in cells was detected by a Western blotting method using human colon cancer cell line HCT116 cells accumulated in the M phase. McCoy's 5A culture medium (GIBCO, Catalogue No. 16600-082) containing 10% bovine fetus serum (GIBCO, Catalogue No. 10099-141) was used for the cultivation of the cells. The HCT116 cells were inoculated and then treated with Nocodazole (Sigma Corporation, Catalogue No. M-1404) so that the cell cycle was accumulated to the M phase. A test compound (final concentration: 10 μmol/L) was added thereto, and the cells were incubated at 37° C. for 30 minutes. The cells were then recovered and washed with a phosphate buffered saline (PBS) once. The cells were suspended in a cell-solubilizing solution (50 mmol/L 2-[4-(2-hydroxyethyl)-1-piperazinyl]ethanesulfonic acid (HEPES) (pH 7.4), 150 mmol/L NaCl, 1 mmol/L ethylenediamine-N,N,N′,N′-tetraacetic acid disodium salt dihydrate (EDTA), 2.5 mmol/L ethylene glycol bis(2-aminoethylether)-N,N,N′,N′-tetraacetic acid (EGTA), 0.1% Tween-20 (Bio-Rad Laboratories Inc., Catalogue No. 170-6531), 10% β-glycerophosphate, 1 mmol/L NaF, 0.1 mmol/L Na3VO4, 1 mmol/L Pefabloc SC (Roche Diagnostics K.K., Catalogue No. 1 429 868), and Complete EDTA-free (Roche Diagnostics K.K., Catalogue No. 1 873 580)}, and the suspension was frozen and thawed. Subsequently, the supernatant obtained by centrifugal separation was used as a cell extraction solution. SDS-PAGE was performed using a 12.5% polyacrylamide gel under the condition that the amount of protein per sample was 30 μg in accordance with the method used by Laemmli et al. The protein was transferred onto a PVDF membrane (Millipore Corporation, Catalogue No. IPVH304F0) by a semi-dry method. The membrane was allowed to react with anti-phosphorylated histone H3 Ser10 antibody (Upstate Inc., Catalogue No. 06-570) used as a primary antibody, and an HRP-labeled anti-rabbit IgG antibody (Amersham biosciences, Catalogue No. NA934V) used as a secondary antibody. Subsequently, […] was detected using a SuperSignal West Pico chemiluminescence substrate (Pierce, Catalogue No. 34077).
For orientation: A western blot detects proteins with antibodies after separation by electrophoresis.

Data set [5] deals with T1, human FGFR3 (Homo sapiens, UniProt P22607).
T1 construct: the intracellular domain (448-759 amino acids) of human FGFR3; made in house; host or cells: insect cells (baculovirus)
Put plainly: Fibroblast growth factor receptor 3 (FGFR3) inhibitory activity, time-resolved fluoroimmunoassay. To be noted: 10 μmol/L test compound. In kind it is biochemical. How it is done:
In order to determine FGFR3 inhibitory activity, the following method was employed. FGFR3 was prepared by allowing baculovirus that expresses a protein in which glutathione S-transferase (GST) was fused to the N-terminal of the intracellular domain (448-759 amino acids) of human FGFR3 to infect insect cells. Biotinylated polyglutamic acid-tyrosine peptide (Nihon Schering K.K., Catalogue No. 61GT0BAA) used as a substrate was immobilized on a 96-well plate coated with NeutroAvidin (Pierce, Catalogue No. 31000) and was then blocked with 0.25% gelatin to yield a plate for the determination of kinase reaction A solution containing, at final concentrations, 8 μg/L GST-fused FGFR3 protein, 20 mmol/L Tris-Cl (pH 7.5), 0.04% 2-mercaptoethanol, 0.04 mmol/L Na3VO4, 20 mmol/L MgCl2, 5 mmol/L MnCl2, 10 mmol/L ATP, 0.1% bovine serum albumin (BSA; Sigma Corporation, Catalogue No. A4503), 0.1% dimethyl sulfoxide (DMSO), and 10 μmol/L test compound was prepared. Subsequently, 50 μL of the solution was placed in each of the wells of the plate for the determination of kinase reaction, followed by enzymatic reaction at 24° C. for 60 minutes. The plate was washed with TBS-T [10 mM Tris-Cl (pH 7.5), 150 mmol/L NaCl, and 0.05% Tween 20 (Bio-Rad Laboratories Inc., Catalogue No. 170-6531)] four times, and allowed to react with europium-labeled anti-phosphotyrosine antibody (PerkinElmer Inc. Catalogue No. AD0160) at room temperature for 60 minutes. The plate was further washed with TBS-T four times. Subsequently, DELFIA. Enhancement Solution (PerkinElmer Inc. Catalogue No. 1244-105) was added to the plate, and time-resolved fluoroimmunoassay was performed (excitation wavelength: 340 nm, measuring wavelength: 615 nm). The relative activity (%) of a well in which the test compound was added was calculated using the value of a well containing the enzyme and 0.1% DMSO being 100% and the value of a well not containing the enzyme being 0%. The FGFR3 inhibitory activity (%) of the test compound was determined by subtracting the relative activity (%) from 100.

The target in data set [6] is T2, Flt-3 (Homo sapiens, UniProt P36888).
T2 construct: His tag; purchased Upstate Inc. 14-500
T2 sequence (P36888 564-993 limits assumed): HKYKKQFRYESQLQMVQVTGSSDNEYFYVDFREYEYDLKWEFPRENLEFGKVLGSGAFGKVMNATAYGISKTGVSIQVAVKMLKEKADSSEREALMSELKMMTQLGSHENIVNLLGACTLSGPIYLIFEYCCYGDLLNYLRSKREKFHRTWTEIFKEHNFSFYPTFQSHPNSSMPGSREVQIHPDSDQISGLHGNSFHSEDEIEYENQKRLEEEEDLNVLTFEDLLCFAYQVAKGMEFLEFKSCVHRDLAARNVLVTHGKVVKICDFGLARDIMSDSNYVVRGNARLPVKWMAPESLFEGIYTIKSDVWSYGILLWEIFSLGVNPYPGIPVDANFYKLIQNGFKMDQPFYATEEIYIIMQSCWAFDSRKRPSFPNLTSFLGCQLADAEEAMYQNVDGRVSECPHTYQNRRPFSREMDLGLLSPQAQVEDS
Put plainly: Flt-3 inhibitory activity, time-resolved fluoroimmunoassay. It is filed as biochemical. Particulars: 10 μmol/L test compound. As for the experimental part: Flt-3 inhibitory activity was determined by a method described below.
Biotinylated polyglutamic acid-tyrosine peptide (Nihon Schering K.K., Catalogue No. 61GT0BAA) used as a substrate was immobilized on a 96-well plate (FIA-PLATE BLACK 96 well FALT-BOTTOM HIGH BINDING, Greiner Bio-one Co., Ltd., Catalogue No. 655077) coated with NeutroAvidin (Pierce, Catalogue No. 31000) and was then blocked with 0.25% gelatin to yield a plate for the determination of kinase reaction. A solution containing, at final concentrations, 8 μg/L His-tagged protein-fused Flt-3 (Upstate Inc., Catalogue No. 14-500), 20 mmol/L Tris-Cl (pH 7.5), 0.04% 2-mercaptoethanol, 0.04 mmol/L Na3VO4, 20 mmol/L MgCl2, 5 mmol/L MnCl2, 10 μmol/L ATP, 0.1% BSA, 0.1% DMSO, and […] test compound was prepared. Subsequently, 50 μL of the solution was placed in each of the wells of the plate for the determination of kinase reaction, followed by enzymatic reaction at 24° C. for 60 minutes. The plate was washed with TBS-T [10 mmol/L Tris-Cl (pH 7.5), 150 mmol/L NaCl, and 0.05% Tween 20 (Bio-Rad Laboratories Inc., Catalogue No. 170-6531)] four times, and allowed to react with europium-labeled anti-phosphotyrosine antibody (PerkinElmer Inc. Catalogue No. AD0160) at room temperature for 60 minutes. The plate was further washed with TBS-T four times. Subsequently, time-resolved fluoroimmunoassay was performed (excitation wavelength: 340 nm, measuring wavelength: 615 nm). The relative activity (%) of a well to which the enzyme and the test compound were added was calculated using the value of a well to which the test compound was not added being 100% and the value of a well to which the enzyme and the test compound were not added being 0%. The Flt-3 inhibitory activity (%) of the test compound was determined by subtracting the relative activity (%) from 100.

T1 sequence (P22607 448-759): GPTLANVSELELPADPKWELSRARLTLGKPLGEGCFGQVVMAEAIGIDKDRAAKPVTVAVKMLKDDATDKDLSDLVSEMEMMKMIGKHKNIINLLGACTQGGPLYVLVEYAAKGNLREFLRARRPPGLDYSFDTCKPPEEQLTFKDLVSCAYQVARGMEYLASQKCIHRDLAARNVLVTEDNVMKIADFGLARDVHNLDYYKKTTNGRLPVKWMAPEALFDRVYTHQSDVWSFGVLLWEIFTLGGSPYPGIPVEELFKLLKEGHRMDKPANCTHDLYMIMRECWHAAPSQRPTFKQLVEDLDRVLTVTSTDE

For `Cc1cc(Nc2cc(N3CCN(C)CC3)nc(Sc3ccc(NC(=O)C4CC4)cc3)n2)n[nH]1` [VX-680], the antitumor activity result in data set [1] and in data set [2] was “exhibits an antitumor activity” throughout.
As to `Nc1nc(Nc2ccc(S(N)(=O)=O)cc2)nn1C(=O)c1c(F)cccc1F` [JNJ-7706621], the antitumor activity entry in data set [2] is “exhibits an antitumor activity”.
`COc1cc(-c2cc3cc(CN(C)C)ccc3[nH]2)c2c(c1OS(C)(=O)=O)CNC2=O` [Compound 362, 4-Methanesulfonyloxy-5-methoxy-7-[1H-5-(dimethylaminomethyl)indol-2-yl]isoindolinone] registered a melting point of 232 to 234 °C. Besides, in data set [3], the “ability of inducing enlarged lobed nuclei for HCT116 cells” value is “show ability of inducing enlarged lobed nuclei”. The “suppression of the phosphorylation of histone H3 Ser10 in HCT116 cells” value in data set [4] is “almost completely suppressed”. This compound displayed an inhibition at 10 µM in data set [5] of at least 50%. The inhibition at 10 µM in data set [6] is at least 50%.
